Patent US12686690B2, “Macrocyclic urea orexin receptor agonists” (Merck Sharp & Dohme LLC, priority 2020, dated 2026)

Molecular target: T1, hOX2R (Homo sapiens, UniProt O43614)
T1 construct: expressed in transfected cells; host or cells: CHO cells (G418 selection)
T1 sequence (O43614 1-444): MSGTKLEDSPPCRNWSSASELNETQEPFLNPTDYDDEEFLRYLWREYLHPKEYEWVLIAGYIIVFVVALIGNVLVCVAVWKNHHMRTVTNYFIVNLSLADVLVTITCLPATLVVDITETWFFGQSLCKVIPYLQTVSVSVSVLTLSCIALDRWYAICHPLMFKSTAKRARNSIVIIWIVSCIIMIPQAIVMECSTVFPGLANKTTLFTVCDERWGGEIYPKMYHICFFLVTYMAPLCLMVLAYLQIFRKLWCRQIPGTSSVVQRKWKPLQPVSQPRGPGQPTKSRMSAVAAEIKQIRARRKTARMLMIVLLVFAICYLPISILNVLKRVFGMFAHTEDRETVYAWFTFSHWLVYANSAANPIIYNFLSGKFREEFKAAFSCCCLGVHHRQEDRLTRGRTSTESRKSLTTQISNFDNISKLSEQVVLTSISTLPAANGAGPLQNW
Experiment: hOX2R IPone assay (orexin receptor agonism)
Assay type: cell-based
Conditions: IPone readout; for hOX2R_Ipone max %act: maximal activation; for EC50: orexin receptor agonist, read-out: hOX2R_IPone EC50

Row | hOX2R_Ipone max %act [%] | EC50 [nM] | Compound
1 | 102.9 | 9.6 | CCN1C(=O)NC(CC2(C(F)(F)F)CC2)CCCCCOc2nc(cn3ccnc23)-c2cc(ncc2OC)[C@H]1C (single isomer, unassigned) [Example 66A]
2 | 100.1 | 166 | CCN1C(=O)N[C@@H](CCC(F)(F)F)CCCCCOc2nc(cn3ccnc23)-c2cc(nc(C)n2)[C@@H]1C [Example 119A, (12S,16R)-13-ethyl-9,12-dimethyl-16-(3,3,3-trifluoropropyl)-12,13,16,17,18,19,20,21-octahydro-6,23-(azeno)-11,7-(metheno)imidazo[2,1-c][1,4,8,10,13,15]oxapentaazacyclohenicosin-14(15H)-one]
3 | 100.6 | 0.74 | CCN1C(=O)NC(COCC(F)(F)F)CCCCCOc2nc(cn3ccnc23)-c2cc(ncc2OC)[C@H]1C (stereo partly drawn) [Example 188, (3R,E)-4-ethyl-25-methoxy-3-methyl-7-((2,2,2-trifluoroethoxy)methyl)-13-oxa-4,6-diaza-1(6,8)-imidazo [1,2-a]pyrazina-2(4,2)-pyridinacyclotridecaphan-5-one]
4 | 101.4 | 14.9 | CCN1C(=O)N[C@@H](CCC(F)(F)F)CCCCCOc2nc(nn3ccnc23)-c2ccnc(c2)[C@H]1C [Example 102, (12R,16R)-13-ethyl-12-methyl-16-(3,3,3-trifluoropropyl)-12,13,16,17,18,19,20, 21-octahydro-6,23-(azeno)-11,7-(metheno)imidazo[2,1-c][1,4,5,10,13,15] oxapentaazacycloheni-cosin-14(15H)-one]
5 | 100.4 | 9.8 | CCN1C(=O)NC(CCC(F)(F)F)CCC(F)(F)CCOc2nc(cn3ccnc23)-c2cc(ncc2OC)[C@H]1C (single isomer, unassigned) [Example 121A]
6 | 100.7 | 1.4 | CCN1C(=O)N[C@@H](CCC(F)(F)F)CCCCCOc2nc(cn3ccnc23)-c2cc(ncc2OC)[C@H]1C [Example 111, (3R,7R,E)-4-ethyl-25-methoxy-3-methyl-7-(3,3,3-trifluoropropyl)-13-oxa-4,6-diaza-1(6,8)-imidazo[1,2-a]pyrazina-2(4,2)-pyridinacyclotridecaphan-5-one]
7 | 101.5 | 1.5 | CCN1C(=O)NC(C2CCOCC2)CCCCCOc2nc(cn3ccnc23)-c2cc(ncc2OC)[C@H]1C (single isomer, unassigned) [Example 68B]
8 | 99.6 | 0.8 | CCN1C(=O)NC(CCOC(F)(F)F)CCCCCOc2nc(cn3ccnc23)-c2cc(ncc2OC)[C@H]1C (single isomer, unassigned) [Example 73B]
9 | 98.5 | 51.1 | CCN1C(=O)N[C@@H](CCC(F)(F)F)CCCCCOc2nc(cn3ccnc23)-c2ccnc(c2)[C@@H]1C [Example 30, (12S,16R)-13-ethyl-12-methyl-16-(3,3,3-trifluoropropyl)-12,13,16,17,18, 19,20,21-octa-hydro-6,23-(azeno)-11,7-(metheno)imidazo [2,1-c][1,4,10, 13,15]oxatetra-azacyclohenicosin-14(15H)-one]
10 | 99.8 | 1.7 | CCN1C(=O)NC(CCC(F)F)CCCCCOc2nc(nn3ccnc23)-c2cc(ncc2OC)[C@H]1C (stereo partly drawn) [Example 202, (3R,E)-7-(3,3-difluoropropyl)-4-ethyl-25-methoxy-3-methyl-13-oxa-4,6-diaza-1(2,4)-imidazo[2,1-f][1,2,4]triazina-2(4,2)-pyridina-cyclotridecaphan-5-one]
11 | 102.9 | 4.98 | CCN1C(=O)NC(C(O)CC(F)(F)F)CCCCCOc2cn3ncnc3c(n2)-c2cc(ncc2OC)C1C [Example 132, (3R,7R,E)-4-ethyl-25-methoxy-3-methyl-7-((R)-3,3,3-trifluoro-1-hydroxypropyl)-13-oxa-4,6-diaza-1(6,8)-[1,2,4]triazolo[1,5-a]pyrazina-2(4,2)-pyridinacyclotridecaphan-5-one]
12 | 106.1 | 1.05 | CCN1C(=O)N[C@@H](CCS(C)(=O)=O)CCCCCOc2nc(cn3ncnc23)-c2cc(ncc2OC)[C@H]1C [Example 154, (3R,7R,E)-4-ethyl-25-methoxy-3-methyl-7-(2-(methylsulfonyl)ethyl)-13-oxa-4,6-diaza-1(6,8)-[1,2,4]triazolo[1,5-a]pyrazina-2(4,2)-pyridinacyclotridecaphan-5-one]
13 | 100.5 | 4.3 | CCN1C(=O)N[C@@H](CCC(F)(F)F)CCCCCOc2nc(nn3ccnc23)-c2cc(cnc2OC)[C@H]1C [Example 47, (3R,7R,E)-4-ethyl-22-methoxy-3-methyl-7-(3,3,3-trifluoropropyl)-13-oxa-4,6-diaza-1(2,4)-imidazo[2,1-f][1,2,4]triazina-2(3,5)-pyridinacyclotridecaphan-5-one]
14 | 100.1 | 3.1 | CCN1C(=O)NC(CC2CC2(F)F)CCCCCOc2nc(cn3ccnc23)-c2cc(ncc2OC)[C@H]1C (single isomer, unassigned) [Example 59B]
15 | 107.9 | 1.45 | CCN1C(=O)N[C@@H](CCC(C)(F)F)CCOCCOc2nc(cc3c(C)cnn23)-c2cc(ncc2OC)[C@H]1C [Example 171, (3R,7S,E)-7-(3,3-difluorobutyl)-4-ethyl-25-methoxy-3-methyl-9,13-dioxa-4,6-diaza-1(5,7)-pyrazolo[1,5-c]pyrimidina-2(4,2)-pyridinacyclotridecaphan-5-one]
16 | 99.7 | 1.6 | CCN1C(=O)N[C@@H](CCC(F)(F)F)CCCCCOc2nc(cn3ccnc23)-c2cc(nnc2OC)[C@H]1C [Example 116, (12R,16R)-13-ethyl-8-methoxy-12-methyl-16-(3,3,3-trifluoropropyl)-12,13,16,17,18,19,20,21-octahydro-6,23-(azeno)-11,7-(metheno)imidazo[2,1-c][1,4,9,10,13,15]oxapentaazacyclohenicosin-14(15H)-one]

Row | Compound | hOX2R_Ipone max %act [%] | EC50 [nM]
17 | (3R,E)-4-ethyl-25-methoxy-3- methyl-7-(2,2,3,3- tetrafluoropropyl)-13-oxa-4,6- diaza-1(6,8)-imidazo[1,2-a] pyrazina-2(4,2)-pyridina- cyclotridecaphan-5-one [Example 187] | 104.1 | 0.62
18 | CCN1C(=O)NC(c2ccon2)CCCCCOc2nc(cn3ccnc23)-c2cccc(c2)[C@H]1C (mixture of isomers) [Example 20, (12R)-13-ethyl-12-methyl-16-(1,2-oxazol-3-yl)-12,13,16,17,18,19, 20,21-octahydro-6,23-(azeno)-11,7-(metheno) imidazo[2,1-c][1,4,13,15]oxa-triazacyclohenicosin-14(15H)-one] | 98.31 | 9.5
19 | CCN1C(=O)NC(C)CCCCCOc2nc(cn3ccnc23)-c2cccc(c2)[C@H]1C (mixture of isomers) [Example 18, (12R)-13-ethyl-12,16-dimethyl-12,13,16,17,18,19, 20,21-octahydro-6,23-(azeno)-11,7-(metheno) imidazo[2,1-c][1,4,13,15]oxatriaza-cyclohenicosin-14(15H)-one] | 98.6 | 26.6
20 | CCN1C(=O)NCCCNCCOc2nc(cn3ccnc23)-c2cccc(c2)[C@H]1C [Example 11] | 75.54 | 778
